Assays:
Test in all cases: relative viability vs DMSO control (72 h) (fraction); higher = more viable cells
A204 = test system: A204
In short: (§1)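 Relative viability was measured with ATPLite and expressed as percent growth, averaged across up to triplicate wells. Sarcoma cell lines had been seeded in 384-well plates to reach 80–90% confluence, dosed after 24 h, and incubated 72 h at 37 °C, 5% CO2. All data were rescaled on a scale where 1 is full and 0 is none.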

HS729 = test system: HS729
In short: as §1

KHOS-NP = test system: KHOS-NP
In short: as §1

SW684 = test system: SW684
In short: as §1

SW872 = test system: SW872
In short: as §1

Cc1cccc(-c2nn3c(c2-c2ccnc4ccc(C(N)=O)cc24)CCC3)n1 [Galunisertib]
relative viability
Details | A204 | HS729 | KHOS-NP | SW684 | SW872
0.00017 µM | 1.01 | 0.993 | 1.088 | 1.08 | 1.05
0.00051 µM | 1.04 | 0.933 | 1.09 | 1.09 | 1.05
0.00152 µM | 0.99 | 0.948 | 1.066 | 1.08 | 1
0.00457 µM | 1.03 | 0.897 | 1.06 | 1.13 | 1.02
0.01372 µM | 0.984 | 0.901 | 1.06 | 1.09 | 0.989
0.04115 µM | 1 | 0.892 | 1.07 | 1.11 | 0.991
0.1235 µM | 1.01 | 0.898 | 1.03 | 1.09 | 0.956
0.3704 µM | 1.02 | 0.836 | 1.04 | 1.08 | 0.96
1.111 µM | 0.996 | 0.794 | 0.999 | 1.05 | 1
3.333 µM | 0.996 | 0.756 | 0.978 | 1.08 | 1.01
10 µM | 0.936 | 0.749 | 0.976 | 1.09 | 1

CN1CC[C@@H](NC(=O)Nc2ccc(C#N)cc2)C[C@@H]1c1nc2ccccc2[nH]1 [Glasdegib]
relative viability
Details | A204 | HS729 | KHOS-NP | SW684 | SW872
0.00017 µM | 1.07 | 1.07 | 1.09 | 1.165 | 1.08
0.00051 µM | 1.074 | 1.02 | 1.1 | 1.14 | 1.07
0.00152 µM | 1.09 | 1.05 | 1.1 | 1.19 | 1.08
0.00457 µM | 1.06 | 0.993 | 1.11 | 1.15 | 1.06
0.01372 µM | 1.09 | 1.02 | 0.779 | 1.16 | 1.06
0.04115 µM | 1.06 | 1.05 | 1.1 | 1.177 | 1.05
0.1235 µM | 1.064 | 1.03 | 1.108 | 1.12 | 1.06
0.3704 µM | 1.05 | 0.984 | 1.12 | 1.2 | 1.066
1.111 µM | 1.04 | 1.03 | 1.11 | 1.12 | 1.05
3.333 µM | 1.02 | 0.993 | 1.085 | 1.12 | 1.06
10 µM | 0.975 | 1.03 | 1.02 | 1.12 | 1.06

CC(C)NC[C@@H](C(=O)N1CCN(c2ncnc3c2[C@H](C)C[C@H]3O)CC1)c1ccc(Cl)cc1 [Ipatasertib]
relative viability
Details | A204 | HS729 | KHOS-NP | SW684 | SW872
0.00017 µM | 1.06 | 1 | 1.1 | 1.07 | 1.01
0.00051 µM | 1.08 | 0.969 | 1.11 | 1.11 | 1.04
0.00152 µM | 1.05 | 0.91 | 1.11 | 1.11 | 1.01
0.00457 µM | 1.05 | 0.916 | 1.09 | 1.09 | 1.01
0.01372 µM | 1.05 | 0.844 | 1.06 | 1.09 | 0.922
0.04115 µM | 0.992 | 0.849 | 1.06 | 1.08 | 0.91
0.1235 µM | 0.953 | 0.802 | 1.067 | 0.994 | 0.843
0.3704 µM | 0.751 | 0.726 | 1.04 | 0.855 | 0.712
1.111 µM | 0.711 | 0.643 | 1.04 | 0.664 | 0.611
3.333 µM | 0.621 | 0.532 | 0.994 | 0.5598 | 0.491
10 µM | 0.509 | 0.49 | 0.957 | 0.49 | 0.415

COC(=O)[C@@]1(O)C[C@H]2O[C@]1(C)n1c3ccccc3c3c4c(c5c6ccccc6n2c5c31)C(=O)NC4 [K-252a]
relative viability
Details | A204 | HS729 | KHOS-NP | SW684 | SW872
0.00017 µM | 1.06 | 1.06 | 1.09 | 1.12 | 1.09
0.00051 µM | 1.11 | 1.02 | 1.101 | 1.176 | 1.06
0.00152 µM | 1.06 | 1 | 1.1 | 1.14 | 1.1
0.00457 µM | 1.07 | 0.923 | 1.08 | 1.18 | 1.05
0.01372 µM | 0.941 | 0.863 | 1.1 | 1.2 | 0.985
0.04115 µM | 0.6765 | 0.754 | 1.071 | 1.14 | 0.843
0.1235 µM | 0.527 | 0.713 | 0.961 | 1.05 | 0.759
0.3704 µM | 0.433 | 0.752 | 0.927 | 0.906 | 0.589
1.111 µM | 0.374 | 0.588 | 0.286 | 0.512 | 0.394
3.333 µM | 0.31 | 0.356 | 0.154 | 0.0655 | 0.0892
10 µM | 0.0136 | 0.0254 | 0.0717 | 0.0141 | 0.0117

CCC(=O)N1CC[C@H](Nc2ncnc3c2CN(c2cnc(OC)c(C(F)(F)F)c2)CC3)C1 [Leniolisib]
relative viability
Details | A204 | HS729 | KHOS-NP | SW684 | SW872
0.00017 µM | 1.04 | 1.07 | 1.11 | 1.091 | 1.1
0.00051 µM | 1.06 | 1.02 | 1.11 | 1.14 | 1.09
0.00152 µM | 1 | 0.964 | 1.09 | 1.14 | 1.07
0.00457 µM | 1.04 | 0.982 | 1.101 | 1.14 | 1.06
0.01372 µM | 1.03 | 0.965 | 1.08 | 1.15 | 1.06
0.04115 µM | 1.02 | 0.95 | 1.07 | 1.03 | 1.03
0.1235 µM | 1.01 | 0.947 | 1.07 | 0.912 | 1.03
0.3704 µM | 0.986 | 0.992 | 1.061 | 0.793 | 1.03
1.111 µM | 0.897 | 0.838 | 1.05 | 0.742 | 0.951
3.333 µM | 0.768 | 0.82 | 1.05 | 0.674 | 0.907
10 µM | 0.579 | 0.675 | 0.96 | 0.548 | 0.688

C[C@]12O[C@H](C[C@]1(O)CO)n1c3ccccc3c3c4c(c5c6ccccc6n2c5c31)CNC4=O [Lestaurtinib]
relative viability
Details | A204 | HS729 | KHOS-NP | SW684 | SW872
0.00017 µM | 1.07 | 1.05 | 1.11 | 1.15 | 1.08
0.00051 µM | 1.07 | 1 | 1.108 | 1.18 | 1.07
0.00152 µM | 1.07 | 1.01 | 1.11 | 1.16 | 1.04
0.00457 µM | 1.02 | 0.932 | 1.1 | 1.17 | 1.03
0.01372 µM | 0.967 | 0.863 | 1.1 | 1.18 | 0.955
0.04115 µM | 0.788 | 0.797 | 1.08 | 1.13 | 0.803
0.1235 µM | 0.56 | 0.757 | 0.9051 | 1.11 | 0.648
0.3704 µM | 0.378 | 0.723 | 0.785 | 0.913 | 0.507
1.111 µM | 0.321 | 0.619 | 0.471 | 0.659 | 0.358
3.333 µM | 0.277 | 0.411 | 0.205 | 0.346 | 0.267
10 µM | 0.118 | 0.207 | 0.091 | 0.0527 | 0.0094

N#CCNC(=O)c1ccc(-c2ccnc(Nc3ccc(N4CCOCC4)cc3)n2)cc1 [Momelotinib]
relative viability
Details | A204 | HS729 | KHOS-NP | SW684 | SW872
0.00017 µM | 1.03 | 1.07 | 1.09 | 1.12 | 1.07
0.00051 µM | 1.07 | 1.04 | 1.099 | 1.15 | 1.06
0.00152 µM | 1.05 | 1.05 | 1.101 | 1.09 | 1.07
0.00457 µM | 1.05 | 1.06 | 1.09 | 1.13 | 1.025
0.01372 µM | 1.04 | 1.01 | 1.115 | 1.12 | 1.03
0.04115 µM | 1.06 | 1.01 | 1.11 | 1.13 | 1.06
0.1235 µM | 0.993 | 0.995 | 1.101 | 1.1 | 0.973
0.3704 µM | 0.774 | 0.939 | 1.08 | 1.02 | 0.972
1.111 µM | 0.646 | 0.859 | 1.01 | 0.795 | 0.765
3.333 µM | 0.498 | 0.777 | 1.05 | 0.82 | 0.733
10 µM | 0.284 | 0.741 | 0.983 | 0.646 | 0.654

Cc1ccc(Nc2nccc(N(C)c3ccc4c(C)n(C)nc4c3)n2)cc1S(N)(=O)=O [Pazopanib]
relative viability
Details | A204 | HS729 | KHOS-NP | SW684 | SW872
0.00017 µM | 1.03 | 0.9 | 1.04 | 1.13 | 1
0.00051 µM | 1.06 | 0.922 | 1.05 | 1.13 | 0.986
0.00152 µM | 1.06 | 0.876 | 1.038 | 1.19 | 0.988
0.00457 µM | 1.03 | 0.879 | 1.02 | 1.15 | 0.9911
0.01372 µM | 0.977 | 0.917 | 1.02 | 1.15 | 0.989
0.04115 µM | 0.928 | 0.8727 | 1.06 | 1.129 | 0.934
0.1235 µM | 0.611 | 0.843 | 1.03 | 1.14 | 0.9475
0.3704 µM | 0.348 | 0.793 | 1.01 | 1.12 | 0.968
1.111 µM | 0.342 | 0.724 | 0.99 | 1.16 | 0.984
3.333 µM | 0.294 | 0.7 | 0.968 | 1.13 | 0.934
10 µM | 0.243 | 0.554 | 0.719 | 0.878 | 0.694

— the supplement of paper PMC10883282
